Measured values taken from ChEMBL document CHEMBL3046157, “Synthesis of new N-arylamino(2-furyl)methylphosphonic acid diesters, and in vitro evaluation of their cytotoxicity against esophageal cancer cells” (Med Chem Res, 2013).

What was measured:
[1] = Cytotoxicity against Homo sapiens (human) HET-1A cells assessed as inhibition of cell survival after 24 hr by MTT assay; assay type: cell-based
[2] = Cytotoxicity against Homo sapiens (human) KYSE-30 cells assessed as inhibition of cell survival after 24 hr by MTT assay; assay type: functional, cell-based; details: KYSE-30, 24 h
[3] = Cytotoxicity against Homo sapiens (human) KYSE-150 cells assessed as inhibition of cell survival after 24 hr by MTT assay; assay type: functional, cell-based; details: KYSE-150, 24 h
KYSE-270 = assay: Cytotoxicity against Homo sapiens (human) KYSE-270 cells assessed as inhibition of cell survival after 24 hr by MTT assay; assay type: functional, cell-based; details: KYSE-270, 24 h

| SMILES | IC50 [1] | IC50 [2] | IC50 [3] | IC50 (KYSE-270) |
| --- | --- | --- | --- | --- |
| COc1ccccc1NC(c1ccco1)P(=O)(OC)OC (centres undefined) | > 400 µM | 38 µM | 51.3 µM | 77.4 µM |
| COc1ccc(NC(c2ccco2)P(=O)(OC)OC)cc1 (centres undefined) | > 400 µM | 316 µM | 166 µM | 224 µM |
| COc1ccc(NC(c2ccco2)P(=O)(Oc2ccccc2)Oc2ccccc2)cc1 (centres undefined) | > 400 µM | > 400 µM | 209 µM | 205 µM |
| Cc1ccccc1NC(c1ccco1)P(=O)(Oc1ccccc1)Oc1ccccc1 (centres undefined) | > 400 µM | 251 µM | > 400 µM | > 400 µM |
| Cc1cccc(NC(c2ccco2)P(=O)(Oc2ccccc2)Oc2ccccc2)c1 (centres undefined) | > 400 µM | 380 µM | > 400 µM | > 400 µM |
| Cc1ccc(NC(c2ccco2)P(=O)(Oc2ccccc2)Oc2ccccc2)cc1 (centres undefined) | > 400 µM | > 400 µM | > 400 µM | > 400 µM |
| COc1cccc(NC(c2ccco2)P(=O)(OCc2ccccc2)OCc2ccccc2)c1 (centres undefined) | > 400 µM | 251 µM | 200 µM | 251 µM |
| Cc1cccc(/N=C/c2ccco2)c1 [N-FURFURYLIDENE-M-TOLUIDINE] | > 400 µM | 158 µM | 50.1 µM | 111 µM |
| COc1ccccc1/N=C/c1ccco1 [N-FURFURYLIDENE-O-ANISIDINE] | > 400 µM | > 400 µM | > 400 µM | > 400 µM |
| COc1ccc(/N=C/c2ccco2)cc1 [N-FURFURYLIDENE-P-ANISIDINE] | > 400 µM | > 400 µM | > 400 µM | > 400 µM |
| Cc1ccc(/N=C\c2ccco2)cc1 [N-FURFURYLIDENE-P-TOLUIDINE] | > 400 µM | > 400 µM | 380 µM | 398 µM |
